# Results published in ChEMBL document CHEMBL5291721, “A preclinical secondary pharmacology resource illuminates target-adverse drug reaction associations of marketed drugs” (Nat Commun, 2023).
# Assays:
# Melanocortin receptor 3 = Melanocortin receptor 3 (Homo sapiens, UniProt P41968)
# [1] = target: Glutamate receptor ionotropic, NMDA 1 (Rattus norvegicus, UniProt P35439)
# [2] = target: T1, Type-1 angiotensin II receptor (Homo sapiens, UniProt P30556)
# T1 sequence (P30556 whole entry): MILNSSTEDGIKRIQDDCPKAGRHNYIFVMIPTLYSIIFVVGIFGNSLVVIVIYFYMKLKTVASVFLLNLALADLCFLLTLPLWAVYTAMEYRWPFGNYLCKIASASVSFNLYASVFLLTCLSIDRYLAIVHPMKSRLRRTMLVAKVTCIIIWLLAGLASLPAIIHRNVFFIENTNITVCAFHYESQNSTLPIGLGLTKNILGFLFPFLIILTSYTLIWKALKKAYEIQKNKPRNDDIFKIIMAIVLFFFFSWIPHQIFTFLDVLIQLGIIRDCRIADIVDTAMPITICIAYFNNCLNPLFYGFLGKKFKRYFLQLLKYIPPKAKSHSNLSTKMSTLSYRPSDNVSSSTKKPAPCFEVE
# Progesterone receptor = target: T2, Progesterone receptor (Homo sapiens, UniProt P06401); format: functional
# T2 sequence (P06401 whole entry): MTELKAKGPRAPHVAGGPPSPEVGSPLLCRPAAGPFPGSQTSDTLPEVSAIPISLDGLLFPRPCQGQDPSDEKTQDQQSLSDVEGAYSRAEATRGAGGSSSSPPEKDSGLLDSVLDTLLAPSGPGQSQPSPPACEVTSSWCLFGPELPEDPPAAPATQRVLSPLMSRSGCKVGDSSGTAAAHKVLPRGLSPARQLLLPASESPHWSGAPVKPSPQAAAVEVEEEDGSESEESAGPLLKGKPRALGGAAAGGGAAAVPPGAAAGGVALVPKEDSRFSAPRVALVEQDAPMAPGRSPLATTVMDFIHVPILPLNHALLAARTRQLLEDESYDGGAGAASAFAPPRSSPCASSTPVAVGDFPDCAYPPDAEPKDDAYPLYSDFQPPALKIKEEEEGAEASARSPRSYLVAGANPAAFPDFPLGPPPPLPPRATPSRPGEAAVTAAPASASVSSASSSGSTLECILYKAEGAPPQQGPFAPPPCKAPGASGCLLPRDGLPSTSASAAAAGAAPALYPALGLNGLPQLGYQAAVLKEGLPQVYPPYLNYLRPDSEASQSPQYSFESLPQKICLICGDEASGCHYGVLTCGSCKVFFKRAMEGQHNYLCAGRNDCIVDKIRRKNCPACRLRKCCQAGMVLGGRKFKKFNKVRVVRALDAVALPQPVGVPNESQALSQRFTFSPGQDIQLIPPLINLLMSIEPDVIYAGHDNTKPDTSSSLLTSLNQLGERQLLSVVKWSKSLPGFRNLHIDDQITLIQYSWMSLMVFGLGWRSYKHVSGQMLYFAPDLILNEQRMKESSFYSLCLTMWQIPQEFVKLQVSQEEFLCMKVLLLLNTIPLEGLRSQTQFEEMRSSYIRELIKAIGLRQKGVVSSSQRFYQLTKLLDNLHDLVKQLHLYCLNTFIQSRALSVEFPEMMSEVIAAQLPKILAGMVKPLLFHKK
# [3] = target: cGMP-inhibited 3',5'-cyclic phosphodiesterase 3A (Homo sapiens, UniProt Q14432); format: functional
# cGMP-inhibited 3',5'-cyclic phosphodiesterase 3A, sequence (Q14432 whole entry): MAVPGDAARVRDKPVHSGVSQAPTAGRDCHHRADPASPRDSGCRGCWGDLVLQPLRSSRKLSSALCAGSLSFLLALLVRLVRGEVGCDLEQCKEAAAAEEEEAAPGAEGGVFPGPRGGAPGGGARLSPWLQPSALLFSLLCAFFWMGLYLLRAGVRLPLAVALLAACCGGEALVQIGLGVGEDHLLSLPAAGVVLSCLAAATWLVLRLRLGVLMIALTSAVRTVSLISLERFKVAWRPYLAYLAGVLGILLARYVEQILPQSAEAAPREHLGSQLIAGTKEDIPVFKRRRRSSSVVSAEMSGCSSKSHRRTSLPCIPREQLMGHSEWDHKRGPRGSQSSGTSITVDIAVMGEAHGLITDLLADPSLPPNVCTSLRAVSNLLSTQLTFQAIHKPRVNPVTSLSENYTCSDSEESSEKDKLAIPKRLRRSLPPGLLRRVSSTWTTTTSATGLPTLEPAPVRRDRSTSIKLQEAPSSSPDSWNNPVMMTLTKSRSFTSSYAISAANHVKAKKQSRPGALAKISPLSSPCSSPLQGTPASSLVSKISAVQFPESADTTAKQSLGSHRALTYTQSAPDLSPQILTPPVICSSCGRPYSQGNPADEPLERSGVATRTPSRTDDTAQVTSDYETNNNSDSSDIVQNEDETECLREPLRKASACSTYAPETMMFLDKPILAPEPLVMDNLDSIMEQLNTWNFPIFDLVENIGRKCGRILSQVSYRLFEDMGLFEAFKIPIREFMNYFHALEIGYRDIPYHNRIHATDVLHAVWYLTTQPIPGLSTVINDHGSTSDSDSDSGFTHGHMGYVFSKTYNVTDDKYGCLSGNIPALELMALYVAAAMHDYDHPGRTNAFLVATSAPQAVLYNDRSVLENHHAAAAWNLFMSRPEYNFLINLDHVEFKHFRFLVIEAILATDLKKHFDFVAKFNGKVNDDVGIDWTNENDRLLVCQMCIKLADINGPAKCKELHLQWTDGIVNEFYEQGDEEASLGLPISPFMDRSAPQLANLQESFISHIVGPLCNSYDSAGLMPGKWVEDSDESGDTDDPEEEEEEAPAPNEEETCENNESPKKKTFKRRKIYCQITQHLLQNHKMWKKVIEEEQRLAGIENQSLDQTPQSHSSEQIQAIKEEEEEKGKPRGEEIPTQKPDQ
# [4] = target: Sodium-dependent noradrenaline transporter (Homo sapiens, UniProt P23975)
# Sodium-dependent noradrenaline transporter, sequence (P23975 whole entry): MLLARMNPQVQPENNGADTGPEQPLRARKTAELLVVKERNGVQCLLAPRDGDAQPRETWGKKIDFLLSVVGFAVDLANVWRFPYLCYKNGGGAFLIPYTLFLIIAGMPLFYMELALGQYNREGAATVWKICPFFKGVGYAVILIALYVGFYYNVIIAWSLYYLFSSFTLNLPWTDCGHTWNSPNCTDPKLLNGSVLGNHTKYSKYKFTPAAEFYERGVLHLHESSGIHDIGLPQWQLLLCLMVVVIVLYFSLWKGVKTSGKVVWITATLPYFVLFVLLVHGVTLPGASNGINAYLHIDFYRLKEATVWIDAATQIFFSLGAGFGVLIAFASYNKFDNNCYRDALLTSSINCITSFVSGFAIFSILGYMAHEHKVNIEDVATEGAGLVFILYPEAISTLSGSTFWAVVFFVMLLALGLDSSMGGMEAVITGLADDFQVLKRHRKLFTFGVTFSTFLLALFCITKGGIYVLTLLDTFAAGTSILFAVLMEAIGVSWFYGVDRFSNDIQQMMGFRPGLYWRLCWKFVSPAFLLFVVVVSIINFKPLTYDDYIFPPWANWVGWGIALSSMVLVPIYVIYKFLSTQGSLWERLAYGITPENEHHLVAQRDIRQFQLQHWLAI
# [5] = target: 5-hydroxytryptamine receptor 2A (Homo sapiens, UniProt P28223); format: functional, cell-based
# 5-hydroxytryptamine receptor 2A, sequence (P28223 whole entry): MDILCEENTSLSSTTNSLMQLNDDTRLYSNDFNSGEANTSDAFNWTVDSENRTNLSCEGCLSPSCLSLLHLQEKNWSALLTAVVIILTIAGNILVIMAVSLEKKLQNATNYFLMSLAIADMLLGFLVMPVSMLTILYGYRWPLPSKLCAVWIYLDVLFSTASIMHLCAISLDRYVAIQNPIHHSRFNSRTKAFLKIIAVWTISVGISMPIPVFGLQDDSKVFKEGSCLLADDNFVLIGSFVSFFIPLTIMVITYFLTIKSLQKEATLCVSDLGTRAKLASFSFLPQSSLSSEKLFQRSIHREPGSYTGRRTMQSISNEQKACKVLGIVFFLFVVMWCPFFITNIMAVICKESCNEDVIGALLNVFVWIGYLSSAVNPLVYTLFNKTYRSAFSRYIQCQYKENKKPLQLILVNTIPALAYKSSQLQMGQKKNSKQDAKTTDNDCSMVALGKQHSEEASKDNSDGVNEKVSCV
# Adenosine receptor A3 = target: T3, Adenosine receptor A3 (Homo sapiens, UniProt P0DMS8)
# T3 sequence (P0DMS8 whole entry): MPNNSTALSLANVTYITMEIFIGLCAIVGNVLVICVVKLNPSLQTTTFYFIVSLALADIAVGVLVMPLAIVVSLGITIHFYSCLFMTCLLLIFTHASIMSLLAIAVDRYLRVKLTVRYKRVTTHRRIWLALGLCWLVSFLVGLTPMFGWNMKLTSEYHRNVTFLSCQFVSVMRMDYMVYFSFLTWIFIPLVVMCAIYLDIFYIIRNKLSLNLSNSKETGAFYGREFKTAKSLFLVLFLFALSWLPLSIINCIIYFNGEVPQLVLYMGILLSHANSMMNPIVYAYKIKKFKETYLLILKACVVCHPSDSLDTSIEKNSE
# [6] = target: Beta-1 adrenergic receptor (Homo sapiens, UniProt P08588); format: functional
# Beta-1 adrenergic receptor, sequence (P08588 whole entry): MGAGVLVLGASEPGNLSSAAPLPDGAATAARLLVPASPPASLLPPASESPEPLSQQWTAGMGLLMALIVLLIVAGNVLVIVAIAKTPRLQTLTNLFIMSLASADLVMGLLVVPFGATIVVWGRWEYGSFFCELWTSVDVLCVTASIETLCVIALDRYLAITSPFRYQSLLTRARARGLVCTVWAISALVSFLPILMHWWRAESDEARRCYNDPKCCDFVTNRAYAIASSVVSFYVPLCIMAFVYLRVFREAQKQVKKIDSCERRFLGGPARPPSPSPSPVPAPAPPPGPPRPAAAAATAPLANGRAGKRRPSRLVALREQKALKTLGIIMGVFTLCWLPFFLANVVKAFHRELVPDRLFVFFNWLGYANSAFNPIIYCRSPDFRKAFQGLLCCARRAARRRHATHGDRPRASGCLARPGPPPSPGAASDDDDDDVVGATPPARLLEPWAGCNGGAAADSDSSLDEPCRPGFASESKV
# [7] = target: T4, 5-hydroxytryptamine receptor 1A (Homo sapiens, UniProt P08908); format: functional, cell-based
# T4 sequence (P08908 whole entry): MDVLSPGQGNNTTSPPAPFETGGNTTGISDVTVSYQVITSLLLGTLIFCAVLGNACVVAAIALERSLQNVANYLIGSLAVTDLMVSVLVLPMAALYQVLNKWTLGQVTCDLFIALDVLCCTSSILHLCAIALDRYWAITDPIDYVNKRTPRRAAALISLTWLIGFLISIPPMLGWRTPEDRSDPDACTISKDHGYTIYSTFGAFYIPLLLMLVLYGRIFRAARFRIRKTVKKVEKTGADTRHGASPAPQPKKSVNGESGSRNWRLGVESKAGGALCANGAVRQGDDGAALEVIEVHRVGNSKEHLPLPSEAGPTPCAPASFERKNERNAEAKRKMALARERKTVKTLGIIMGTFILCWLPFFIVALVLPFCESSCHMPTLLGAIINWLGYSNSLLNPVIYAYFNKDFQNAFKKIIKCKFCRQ
# [8] = target: T5, Alpha-1A adrenergic receptor (Homo sapiens, UniProt P35348); format: functional, cell-based
# T5 sequence (P35348 whole entry): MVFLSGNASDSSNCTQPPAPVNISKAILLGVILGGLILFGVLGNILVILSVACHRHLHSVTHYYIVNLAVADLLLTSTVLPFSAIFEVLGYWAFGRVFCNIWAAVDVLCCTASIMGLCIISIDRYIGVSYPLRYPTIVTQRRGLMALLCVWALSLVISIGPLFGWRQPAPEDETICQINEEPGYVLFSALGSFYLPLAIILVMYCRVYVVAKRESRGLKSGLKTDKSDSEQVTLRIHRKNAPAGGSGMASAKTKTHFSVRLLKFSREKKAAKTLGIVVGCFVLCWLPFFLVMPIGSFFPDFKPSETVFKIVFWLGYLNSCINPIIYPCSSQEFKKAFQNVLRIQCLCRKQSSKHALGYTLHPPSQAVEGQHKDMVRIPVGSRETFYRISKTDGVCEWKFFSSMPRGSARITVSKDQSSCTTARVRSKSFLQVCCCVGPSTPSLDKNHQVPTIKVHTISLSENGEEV
# Further: assay procedure not described here.
# Melanocortin receptor 3, sequence (P41968 whole entry): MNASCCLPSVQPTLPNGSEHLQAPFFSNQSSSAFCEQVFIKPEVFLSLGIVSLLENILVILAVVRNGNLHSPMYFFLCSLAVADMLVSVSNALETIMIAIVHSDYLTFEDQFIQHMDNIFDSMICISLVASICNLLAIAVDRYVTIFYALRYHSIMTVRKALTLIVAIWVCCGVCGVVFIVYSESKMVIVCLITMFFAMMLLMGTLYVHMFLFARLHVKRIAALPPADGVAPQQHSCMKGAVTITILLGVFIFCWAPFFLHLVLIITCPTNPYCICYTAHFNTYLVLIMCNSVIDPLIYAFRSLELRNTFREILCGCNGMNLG
Compound,AC50 (Melanocortin receptor 3) [µM],AC50 [1] [µM],AC50 [2] [µM],AC50 (Progesterone receptor) [µM],AC50 [3] [µM],AC50 [4] [µM],AC50 [5] [µM],AC50 (Adenosine receptor A3) [µM],AC50 [6] [µM],AC50 [7] [µM],AC50 [8] [µM]
NS(=O)(=O)c1cc2c(cc1C(F)(F)F)NC(Cc1ccccc1)NS2(=O)=O (centres undefined) [BENDROFLUMETHIAZIDE],> 10,> 10,> 10,> 10,> 30,> 30,> 10,> 10,> 10,> 10,–
CCCC(C)(COC(N)=O)COC(=O)NC(C)C (centres undefined) [CARISOPRODOL],> 30,> 10,> 30,–,> 30,> 10,> 30,> 30,> 10,> 10,> 30
N[C@H](Cc1cc(I)c(Oc2cc(I)c(O)c(I)c2)c(I)c1)C(=O)O [DEXTROTHYROXINE],> 30,> 10,> 30,–,> 10,> 30,> 30,12.5,> 10,> 10,> 30
C[C@@H]1C[C@H]2[C@@H]3C[C@H](F)C4=CC(=O)C=C[C@]4(C)[C@@]3(F)[C@@H](O)C[C@]2(C)[C@H]1C(=O)CO [DIFLUCORTOLONE],> 30,–,–,0.052,> 30,> 30,> 30,> 30,–,–,–
COC(=O)N[C@@H](C)CNc1nccc(-c2cn(C(C)C)nc2-c2cc(Cl)cc(NS(C)(=O)=O)c2F)n1 [ENCORAFENIB],> 30,> 30,> 30,> 30,25,> 30,> 30,> 30,> 30,> 30,–
O=C(O)c1ccccc1Nc1cccc(C(F)(F)F)c1 [FLUFENAMIC ACID],> 30,> 10,> 30,–,> 30,> 30,> 30,26.3,> 10,> 30,> 30
Nc1ccn([C@@H]2O[C@H](CO)[C@@H](O)C2(F)F)c(=O)n1 [GEMCITABINE],> 30,> 10,> 30,> 30,11,> 30,–,> 30,> 30,> 10,> 30
CC1(C)C(/C=C/C=C/C=C/C=C2\N(CCCCS(=O)(=O)O)c3ccc4ccccc4c3C2(C)C)=[N+](CCCCS(=O)(=O)[O-])c2ccc3ccccc3c21 [INDOCYANINE GREEN ACID FORM],> 30,> 30,9,> 30,29,5.2,–,3,9.4,> 30,> 30
Nc1nc2c(c(=O)[nH]1)N(C=O)C(CNc1ccc(C(=O)N[C@@H](CCC(=O)O)C(=O)O)cc1)CN2 (some centres undefined) [LEUCOVORIN],> 30,> 30,> 30,> 30,> 30,> 30,–,> 30,> 30,> 30,> 30
CC(CCc1ccccc1)NC(C)C(O)c1ccc(O)cc1 (centres undefined) [NYLIDRIN],> 30,–,> 30,–,> 30,11,> 30,> 30,3.95,> 10,–
O=C1Nc2ccc(Cl)cc2C(c2ccccc2)=NC1O (centres undefined) [OXAZEPAM],> 30,> 10,> 30,–,> 30,> 10,> 30,> 30,> 10,> 10,> 30
CCn1cc(C(=O)O)c(=O)c2cc(F)c(N3CCN(C)CC3)cc21 [PEFLOXACIN],> 30,> 30,> 30,> 30,> 30,> 30,–,> 30,> 30,> 30,> 30
CCCNC(C)C(=O)Nc1ccccc1C (centres undefined) [PRILOCAINE],> 30,21,> 30,> 30,> 30,> 30,–,> 30,> 30,> 30,> 30
[H]/N=C(/N)N[C@H]1[C@H](O)[C@@H](O)[C@H](O[C@@H]2O[C@@H](C)[C@](O)(C=O)[C@H]2O[C@@H]2O[C@@H](CO)[C@H](O)[C@@H](O)[C@@H]2NC)[C@@H](N/C(N)=N\[H])[C@@H]1O [STREPTOMYCIN],> 30,> 30,> 30,> 30,> 30,> 30,–,> 30,> 30,> 30,> 30
Cc1cccc(N(C)C(=S)Oc2ccc3ccccc3c2)c1 [TOLNAFTATE],> 10,> 10,> 10,> 30,> 30,> 10,–,> 10,> 10,> 10,> 30
N#C[C@@H]1CCCN1C(=O)CNC12CC3CC(CC(O)(C3)C1)C2 [VILDAGLIPTIN],> 30,> 30,> 30,–,> 30,> 30,> 30,> 30,> 10,> 30,> 30
COLISTIN,–,> 30,–,–,> 30,–,> 30,–,–,> 30,> 30
